According to publication PMC5215716, “A Target-Based Whole Cell Screen Approach To Identify Potential Inhibitors of Mycobacterium tuberculosis Signal Peptidase” (ACS Infectious Diseases, 2016):
Values after ≈ are worked out from the molar mass of the structure shown. Where two headings read alike, the source gives them in different places. Marks after values point to notes of the source that are not given here.

Experiments:
[1] = test system: M. tuberculosis strain SPAM13C (LepB-UE); experiment: microbe, parasite or virus in culture; format: cell-based, Mycobacterium tuberculosis; conditions: for MIC: Mycobacterium tuberculosis; for Change in potency against LepB-UE compared to compound 1: decrease in potency relative to compound 1
[2] = test system: wild-type (wt) M. tuberculosis strain; experiment: microbe, parasite or virus in culture; format: cell-based, Mycobacterium tuberculosis; conditions: Mycobacterium tuberculosis
in vitro = format: cell-based, African green monkey; conditions: African green monkey
Protocol: Cytotoxicity against African green monkey adult kidney cell (Vero cells) was determined as previously described using CellTiter-Glo reagent.[44] The concentration causing 50% growth inhibition (IC50) was calculated by fitting the inhibition curves using the Levenberg–Marquardt algorithm.

LepB = target: T1, LepB (Mycobacterium tuberculosis, UniProt P9WKA1); experiment: LepB membrane assay (fluorogenic signal peptide cleavage by cell membrane fraction); format: biochemical; conditions: M. tuberculosis H37Rv cell membrane fraction, 2 μM peptide substrate, 4 h at 37 °C
T1 construct: we used purified membrane fractions to develop an in vitro assay for signal peptide cleavage; host or cells: γ-irradiated whole M. tuberculosis H37Rv; Triton X-114 membrane fraction
T1 sequence (P9WKA1 1-294): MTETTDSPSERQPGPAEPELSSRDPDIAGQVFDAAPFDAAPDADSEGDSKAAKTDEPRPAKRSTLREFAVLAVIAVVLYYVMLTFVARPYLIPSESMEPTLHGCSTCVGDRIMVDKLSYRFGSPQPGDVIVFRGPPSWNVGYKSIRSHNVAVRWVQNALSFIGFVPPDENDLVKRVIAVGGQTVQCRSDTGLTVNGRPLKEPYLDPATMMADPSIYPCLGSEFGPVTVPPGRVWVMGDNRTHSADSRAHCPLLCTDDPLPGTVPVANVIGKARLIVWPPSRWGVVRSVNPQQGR

[3] = M. tuberculosis strain SPAM13C, OD590 after 5 days at 37 °C, average ± SD of at least two experiments, b = single value
[4] = 120 h, M. tuberculosis strain SPAM13C, OD590 after 5 days at 37 °C, average ± SD of at least two experiments, b = single value, read-out: LepB-UE MIC
[5] = 120 h, […], OD590 after 5 days at 37 °C, average ± SD of at least two experiments, b = single value, read-out: WT MIC

C/C(=N\Nc1nc(C)cc(C)n1)c1ccccc1O [Compound 24]
LepB-UE MIC [1, 3]: 30 ± 3 µM
MIC [1, 4]: 30 to 90 µM (≈ 7.69 to 23.1 µg/mL)
Change in potency against LepB-UE compared to compound 1 [1]: at least 10 fold
MIC [2, 5]: 40 ± 8 µM (≈ 10.3 µg/mL)
CC50 (in vitro): 67 µM

CC(C)=NNc1nc(C)cc(C)n1 [Compound 25]
MIC [1, 4]: > 200 µM
MIC [2, 5]: > 200 µM
CC50 (in vitro): > 100 µM

C/C(=N\Nc1nc(C)cc(C)n1)c1cccnc1 [Compound 26]
MIC [1, 4]: > 200 µM
MIC [2, 5]: > 200 µM

Cc1cc(C)nc(NN=C(c2ccccc2)c2ccccc2)n1 [Compound 27]
MIC [1, 4]: 2.2 ± 0.7 µM (≈ 0.665 µg/mL)
Change in potency against LepB-UE compared to compound 1 [1]: little impact on antitubercular activity compared to compound 1
MIC [2, 5]: 17 ± 8 µM (≈ 5.14 µg/mL)
CC50 (in vitro): 0.1 µM
IC50 (LepB): > 200 µM

C/C(=N\Nc1nnc2c(n1)[nH]c1ccc(C)cc12)c1ccccn1 [Compound 28]
MIC [1, 4]: 4.8 ± 2.4 µM (≈ 1.52 µg/mL)
Change in potency against LepB-UE compared to compound 1 [1]: activity was comparable to that of 1
MIC [2, 5]: > 200 µM
CC50 (in vitro): 1.2 µM
IC50 (LepB): 87 µM

C/C(=N\Nc1ccccn1)c1ccccn1 [Compound 29]
MIC [1, 4]: 130 µM (≈ 27.6 µg/mL)
Change in potency against LepB-UE compared to compound 1 [1]: 42 fold
MIC [2, 5]: > 200 µM
CC50 (in vitro): > 100 µM

C/C(=N\NC(=N)c1ccccn1)c1ccccn1 [Compound 30]
MIC [1, 4]: 7.7 ± 0.2 µM (≈ 1.84 µg/mL)
Change in potency against LepB-UE compared to compound 1 [1]: activity was comparable to that of 1
MIC [2, 5]: 47 ± 6 µM (≈ 11.2 µg/mL)
CC50 (in vitro): 59 µM

C/C(=N\NC(=O)c1ccncc1)c1ccccn1 [Compound 31]
LepB-UE MIC [1, 3]: 3.6 ± 0.7 µM
MIC [1, 4]: 3.5 to 15 µM (≈ 0.841 to 3.6 µg/mL)
Change in potency against LepB-UE compared to compound 1 [1]: activity was comparable to that of 1
MIC [2, 5]: 4.7 ± 0.3 µM (≈ 1.13 µg/mL)
CC50 (in vitro): 10 µM

N=C(N/N=C/c1cccc(Cl)c1)c1ccccn1 [Compound 32]
MIC [1, 4]: 41 µM (≈ 10.6 µg/mL)
MIC [2, 5]: 59 µM (≈ 15.3 µg/mL)
CC50 (in vitro): 62 µM

C/C(=N\NC(=O)c1ccc(Br)o1)c1ccccn1 [Compound 35]
LepB-UE MIC [1, 3]: 8.2^b μM
MIC [2, 5]: 5.3 ± 3.3 µM (≈ 1.63 µg/mL)
CC50 (in vitro): 0.6 µM

C/C(=N\NC(=O)c1cc(Br)ccc1O)c1ccccn1 [Compound 37]
LepB-UE MIC [1, 3]: 2.0 ± 0.5 µM
MIC [1, 4]: 2 to 2.5 µM (≈ 0.668 to 0.835 µg/mL)
MIC [2, 5]: 4.2 ± 2.6 µM (≈ 1.4 µg/mL)
CC50 (in vitro): 5.4 µM

C/C(=N\NC(N)=S)c1ccccn1 [Compound 41]
Differential activity (difference in MIC, wt versus LepB-UE) [1]: equally potent toward both wt and LepB-UE
MIC [1, 4]: 3.6 µM (≈ 0.699 µg/mL)
Change in potency against LepB-UE compared to compound 1 [1]: comparable to that of 1
MIC [2, 5]: 4 µM (≈ 0.777 µg/mL)
CC50 (in vitro): 22 µM

CC1=NN(c2nc(C)cc(C)n2)C(=O)C1Cc1ccccc1 (stereo not shown) [Compound 45]
MIC [1, 4]: 56 ± 3 µM (≈ 16.5 µg/mL)
MIC [2, 5]: 68 ± 12 µM (≈ 20 µg/mL)
CC50 (in vitro): > 100 µM

CCOC(=O)c1c(C)nn(-c2nc(C)cc(C)n2)c1N [Compound 48]
MIC [1, 4]: 44 ± 6 µM (≈ 12.1 µg/mL)
MIC [2, 5]: > 200 µM
CC50 (in vitro): > 100 µM

Cc1cc(C)nc(-n2nc(C)c3c2CC(c2cccs2)CC3=O)n1 (stereo not shown) [Compound 49]
MIC [1, 4]: > 200 µM
MIC [2, 5]: > 200 µM

Cc1cc(C)nc(-n2nc(C)c3c2NC(=O)CC3c2ccccc2)n1 (stereo not shown) [Compound 50]
MIC [1, 4]: > 200 µM
MIC [2, 5]: > 200 µM
CC50 (in vitro): 66 µM

CN(Cc1ccn(C)n1)C(=O)c1ccn(-c2ccc([N+](=O)[O-])cc2)n1 [Compound 51]
MIC [1, 4]: > 200 µM
MIC [2, 5]: > 200 µM
CC50 (in vitro): > 100 µM

Cc1ccn(-c2ccc(C(=O)O)cc2)n1 [Compound 52]
MIC [1, 4]: > 200 µM
MIC [2, 5]: > 200 µM
CC50 (in vitro): > 100 µM

Cc1ccc(C(N)=O)cc1-n1ccc(-c2cccnc2)n1 [Compound 53]
MIC [1, 4]: > 200 µM
MIC [2, 5]: > 200 µM
CC50 (in vitro): > 100 µM

CC(O)c1nc2cc(-n3ccc(-c4cnccn4)n3)ccc2[nH]1 (stereo not shown) [Compound 54]
MIC [1, 4]: > 200 µM
MIC [2, 5]: > 200 µM
CC50 (in vitro): > 100 µM

OCc1ccccc1-n1ccc(-c2cccnc2)n1 [Compound 55]
MIC [1, 4]: > 200 µM
MIC [2, 5]: > 200 µM
CC50 (in vitro): > 100 µM

Cc1ccc(C(N)=O)cc1-n1ccc(-c2cnccn2)n1 [Compound 56]
MIC [1, 4]: > 200 µM
MIC [2, 5]: > 200 µM
CC50 (in vitro): > 100 µM

CO[C@H]1/C=C/O[C@@]2(C)Oc3c(C)c(O)c4c(O)c(c(/C=N/N5CCN(C)CC5)c(O)c4c3C2=O)NC(=O)/C(C)=C\C=C\[C@H](C)[C@H](O)[C@@H](C)[C@@H](O)[C@@H](C)[C@H](OC(C)=O)[C@@H]1C [rifampicin, reference compound]
MIC ([1]; rifampicin, LepB-UE strain, read-out: MIC against LepB-UE): 0.0054 ± 0.0009 µM (≈ 0.00444 µg/mL)
MIC ([2]; read-out: MIC against wt): 0.0077 ± 0.0023 µM (≈ 0.00634 µg/mL)
